Measurements as given in paper PMC7411887, “New Paracyclophanylthiazoles with Anti-Leukemia Activity: Design, Synthesis, Molecular Docking, and Mechanistic Studies” (Molecules, 2020).

What was measured:
Assay in all cases: NCI single-dose screen (SRB)
Assay type in all cases: cell-based
[1] = tested on: ACHN; conditions: Homo sapiens; Renal Cancer ACHN; 10^−5 M; read-out: Growth inhibition percentage
Procedure, shortened: (§1)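 Percent growth vs. untreated control cells, SRB dye end-point measured spectrophotometrically, after 48 h with compound at 10^−5 M; triplicate runs.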

[2] = tested on: TK-10; conditions: Homo sapiens; Renal Cancer TK-10; 10^−5 M; read-out: Growth inhibition percentage
Procedure, shortened: as §1

[3] = tested on: KM12; conditions: Homo sapiens; Colon Cancer KM12; 10^−5 M; read-out: Growth inhibition percentage
Procedure, shortened: as §1

[4] = tested on: SW-620; conditions: Homo sapiens; Colon Cancer SW-620; 10^−5 M; read-out: Growth inhibition percentage
Procedure, shortened: as §1

[5] = tested on: MCF7; conditions: Homo sapiens; Breast Cancer MCF7; 10^−5 M; read-out: Growth inhibition percentage
Procedure, shortened: as §1

[6] = tested on: SK-OV-3; conditions: Homo sapiens; Ovarian Cancer SK-OV-3; 10^−5 M; read-out: Growth inhibition percentage
Procedure, shortened: as §1

[7] = tested on: MDA-MB-231/ATCC; conditions: Homo sapiens; Breast Cancer MDA-MB-231/ATCC; 10^−5 M; read-out: Growth inhibition percentage
Procedure, shortened: as §1

[8] = tested on: NCI/ADR-RES; conditions: Homo sapiens; Ovarian Cancer NCI/ADR-RES; 10^−5 M; read-out: Growth inhibition percentage
Procedure, shortened: as §1

[9] = tested on: HOP-62; conditions: Homo sapiens; Non-Small-Cell Lung Cancer HOP-62; 10^−5 M; read-out: Growth inhibition percentage
Procedure, shortened: as §1

[10] = tested on: SNB-19; conditions: Homo sapiens; CNS Cancer SNB-19; 10^−5 M; read-out: Growth inhibition percentage
Procedure, shortened: as §1

[11] = tested on: EKVX; conditions: Homo sapiens; Non-Small-Cell Lung Cancer EKVX; 10^−5 M; read-out: Growth inhibition percentage
Procedure, shortened: as §1

[12] = tested on: SN12C; conditions: Homo sapiens; Renal Cancer SN12C; 10^−5 M; read-out: Growth inhibition percentage
Procedure, shortened: as §1

[13] = tested on: SK-MEL-2; conditions: Homo sapiens; Melanoma SK-MEL-2; 10^−5 M; read-out: Growth inhibition percentage
Procedure, shortened: as §1

[14] = tested on: HS 578T; conditions: Homo sapiens; Breast Cancer HS 578T; 10^−5 M; read-out: Growth inhibition percentage
Procedure, shortened: as §1

[15] = tested on: NCI-H23; conditions: Homo sapiens; Non-Small-Cell Lung Cancer NCI-H23; 10^−5 M; read-out: Growth inhibition percentage
Procedure, shortened: as §1

[16] = tested on: UACC-257; conditions: Homo sapiens; Melanoma UACC-257; 10^−5 M; read-out: Growth inhibition percentage
Procedure, shortened: as §1

[17] = tested on: OVCAR-3; conditions: Homo sapiens; Ovarian Cancer OVCAR-3; 10^−5 M; read-out: Growth inhibition percentage
Procedure, shortened: as §1

[18] = tested on: A549/ATCC; conditions: Homo sapiens; Non-Small-Cell Lung Cancer A549/ATCC; 10^−5 M; read-out: Growth inhibition percentage
Procedure, shortened: as §1

[19] = tested on: MDA-MB-468; conditions: Homo sapiens; Breast Cancer MDA-MB-468; 10^−5 M; read-out: Growth inhibition percentage
Procedure, shortened: as §1

[20] = tested on: NCI-H226; conditions: Homo sapiens; Non-Small-Cell Lung Cancer NCI-H226; 10^−5 M; read-out: Growth inhibition percentage
Procedure, shortened: as §1

[21] = tested on: K-562; conditions: Homo sapiens, K562; Leukemia K-562; 10^−5 M; read-out: Growth inhibition percentage
Procedure, shortened: as §1

[22] = tested on: OVCAR-8; conditions: Homo sapiens; Ovarian Cancer OVCAR-8; 10^−5 M; read-out: Growth inhibition percentage
Procedure, shortened: as §1

[23] = tested on: U251; conditions: Homo sapiens, U-251; CNS Cancer U251; 10^−5 M; read-out: Growth inhibition percentage
Procedure, shortened: as §1

[24] = tested on: NCI-H322M; conditions: Homo sapiens; Non-Small-Cell Lung Cancer NCI-H322M; 10^−5 M; read-out: Growth inhibition percentage
Procedure, shortened: as §1

[25] = tested on: LOX IMVI; conditions: Homo sapiens; Melanoma LOX IMVI; 10^−5 M; read-out: Growth inhibition percentage
Procedure, shortened: as §1

[26] = tested on: MDA-MB-435; conditions: Homo sapiens; Melanoma MDA-MB-435; 10^−5 M; read-out: Growth inhibition percentage
Procedure, shortened: as §1

[27] = tested on: A498; conditions: Homo sapiens; Renal Cancer A498; 10^−5 M; read-out: Growth inhibition percentage
Procedure, shortened: as §1

[28] = tested on: MOLT-4; conditions: Homo sapiens; Leukemia MOLT-4; 10^−5 M; read-out: Growth inhibition percentage
Procedure, shortened: as §1

[29] = tested on: 786-0; conditions: Homo sapiens; Renal Cancer 786-0; 10^−5 M; read-out: Growth inhibition percentage
Procedure, shortened: as §1

[30] = tested on: NCI-H460; conditions: Homo sapiens; Non-Small-Cell Lung Cancer NCI-H460; 10^−5 M; read-out: Growth inhibition percentage
Procedure, shortened: as §1

Row | SMILES | inhibition at 10 µM [1] | inhibition at 10 µM [2] | inhibition at 10 µM [3] | inhibition at 10 µM [4] | inhibition at 10 µM [5] | inhibition at 10 µM [6] | inhibition at 10 µM [7] | inhibition at 10 µM [8] | inhibition at 10 µM [9] | inhibition at 10 µM [10] | inhibition at 10 µM [11] | inhibition at 10 µM [12] | inhibition at 10 µM [13] | inhibition at 10 µM [14] | inhibition at 10 µM [15] | inhibition at 10 µM [16] | inhibition at 10 µM [17] | inhibition at 10 µM [18] | inhibition at 10 µM [19] | inhibition at 10 µM [20] | also measured
1 | CCN1C(=O)C(=CC(=O)OC)SC1=NNC(=O)c1cc2ccc1CCc1ccc(cc1)CC2 [Compound 3e] | 10.4% | 6.5% | 15% | 91.2% | 56.3% | 0% | 3.95% | 13.5% | 0% | 14.4% | 6.44% | 4.97% | 5.78% | 1.03% | 0.4% | 7.26% | 7.09% | 3% | 12.7% | 7.31% | inhibition at 10 µM [21]: 45.8%; inhibition at 10 µM [22]: 7.42%; inhibition at 10 µM [23]: 15.6%; inhibition at 10 µM [24]: 7.75%; inhibition at 10 µM [25]: 26.5%; inhibition at 10 µM [26]: 0.72%; inhibition at 10 µM [27]: 6.63%; inhibition at 10 µM [28]: 62.9%; inhibition at 10 µM [29]: 9.45%; inhibition at 10 µM [30]: 0%
2 | COC(=O)/C=C1/S/C(=N/NC(=O)c2cc3ccc2CCc2ccc(cc2)CC3)N(C2CC2)C1=O [Compound 3f] | 17.8% | 0% | 1.32% | 12.9% | 36.4% | 0% | 3.5% | 7.72% | 0% | 11.3% | 12.2% | 17.1% | 13.5% | 5.01% | 9.32% | 16.3% | 15.9% | 11.4% | 29.7% | 9.41% | inhibition at 10 µM [21]: 30.5%; inhibition at 10 µM [22]: 13.3%; inhibition at 10 µM [23]: 20.3%; inhibition at 10 µM [24]: 4.43%; inhibition at 10 µM [25]: 9.41%; inhibition at 10 µM [26]: 8.06%; inhibition at 10 µM [27]: 3.39%; inhibition at 10 µM [28]: 55.6%; inhibition at 10 µM [29]: 14.6%; inhibition at 10 µM [30]: 1.98%
